Earlier results in patent US12502358B1, “Centanafadine multiphasic controlled-release pharmaceutical formulation” (Innovate Therapeutics LLC, priority 2024, dated 2025).

Key:
[1] = biological target: norepinephrine reuptake transporter (NET) (Homo sapiens, UniProt P23975); details: rank among NET, DAT, SERT
[2] = biological target: dopamine reuptake transporter (DAT) (Homo sapiens, UniProt Q01959); details: fraction of the potency towards NET
[3] = biological target: serotonin reuptake transporter (SERT) (Homo sapiens, UniProt P31645); details: fraction of the potency towards NET
Sequence of serotonin reuptake transporter (SERT) (P31645 whole entry, species assumed): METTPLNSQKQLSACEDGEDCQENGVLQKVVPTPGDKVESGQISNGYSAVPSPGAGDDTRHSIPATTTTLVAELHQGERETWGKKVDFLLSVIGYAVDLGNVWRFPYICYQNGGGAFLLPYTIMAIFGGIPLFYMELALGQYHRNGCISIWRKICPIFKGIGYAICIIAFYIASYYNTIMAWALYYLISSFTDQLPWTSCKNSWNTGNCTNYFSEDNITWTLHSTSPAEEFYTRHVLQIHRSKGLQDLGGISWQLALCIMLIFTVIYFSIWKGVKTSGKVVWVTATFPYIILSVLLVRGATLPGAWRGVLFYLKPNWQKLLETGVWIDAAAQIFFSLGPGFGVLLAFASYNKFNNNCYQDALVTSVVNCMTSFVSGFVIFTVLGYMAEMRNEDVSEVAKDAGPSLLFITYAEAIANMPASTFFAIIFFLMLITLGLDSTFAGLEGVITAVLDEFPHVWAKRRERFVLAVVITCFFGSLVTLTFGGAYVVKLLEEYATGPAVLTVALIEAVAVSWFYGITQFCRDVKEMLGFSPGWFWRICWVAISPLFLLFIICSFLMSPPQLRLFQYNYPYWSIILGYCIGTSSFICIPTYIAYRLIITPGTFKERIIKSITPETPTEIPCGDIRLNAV

[4] = per BCS classification

Sequence of dopamine reuptake transporter (DAT) (Q01959 whole entry, species assumed): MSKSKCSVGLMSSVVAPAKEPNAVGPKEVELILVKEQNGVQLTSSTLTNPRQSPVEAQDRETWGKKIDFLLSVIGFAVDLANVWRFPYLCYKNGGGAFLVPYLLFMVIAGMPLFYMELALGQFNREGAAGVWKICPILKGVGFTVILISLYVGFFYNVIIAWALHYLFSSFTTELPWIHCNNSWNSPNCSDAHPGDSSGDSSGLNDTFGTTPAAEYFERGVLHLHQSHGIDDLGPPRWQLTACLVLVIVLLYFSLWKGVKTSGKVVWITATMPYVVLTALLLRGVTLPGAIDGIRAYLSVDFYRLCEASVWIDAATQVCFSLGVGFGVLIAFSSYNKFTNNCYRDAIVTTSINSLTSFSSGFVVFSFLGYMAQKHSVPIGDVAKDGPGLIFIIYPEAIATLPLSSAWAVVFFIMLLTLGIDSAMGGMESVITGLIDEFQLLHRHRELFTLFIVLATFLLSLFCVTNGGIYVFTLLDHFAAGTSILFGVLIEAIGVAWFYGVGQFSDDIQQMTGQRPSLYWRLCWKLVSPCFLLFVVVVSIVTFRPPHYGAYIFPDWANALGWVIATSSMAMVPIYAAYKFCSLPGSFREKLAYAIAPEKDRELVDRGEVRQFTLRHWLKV
Sequence of norepinephrine reuptake transporter (NET) (P23975 whole entry): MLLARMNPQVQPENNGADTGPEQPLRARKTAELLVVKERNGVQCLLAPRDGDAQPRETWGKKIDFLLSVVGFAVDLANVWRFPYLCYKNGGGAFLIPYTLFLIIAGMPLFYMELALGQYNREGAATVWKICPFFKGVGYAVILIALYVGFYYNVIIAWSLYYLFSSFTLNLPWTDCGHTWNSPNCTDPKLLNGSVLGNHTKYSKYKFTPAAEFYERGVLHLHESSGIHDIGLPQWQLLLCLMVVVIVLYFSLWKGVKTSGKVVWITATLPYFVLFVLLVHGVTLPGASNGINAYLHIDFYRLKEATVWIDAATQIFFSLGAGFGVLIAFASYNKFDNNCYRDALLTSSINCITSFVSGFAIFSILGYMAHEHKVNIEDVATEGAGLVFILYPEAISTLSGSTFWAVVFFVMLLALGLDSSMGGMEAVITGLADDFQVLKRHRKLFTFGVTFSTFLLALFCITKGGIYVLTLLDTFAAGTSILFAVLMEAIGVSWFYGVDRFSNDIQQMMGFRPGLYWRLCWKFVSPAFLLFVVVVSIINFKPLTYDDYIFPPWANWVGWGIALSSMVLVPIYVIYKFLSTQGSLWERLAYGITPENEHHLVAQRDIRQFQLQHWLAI

c1ccc2cc([C@]34CNC[C@H]3C4)ccc2c1 [Centanafadine, (1R,5S)-1-(naphthalen-2-yl)-3-azabicyclo[3.1.0]hexane]
potency towards the norepinephrine reuptake transporter (NET) [1]: most potency | potency towards the dopamine reuptake transporter (DAT) relative to NET [2]: one-sixth as much | potency towards the serotonin reuptake transporter (SERT) relative to NET [3]: one-fourteenth as much | solubility [4]: highly soluble
